Measured values from patent publication US5492896A, “Pseudopeptides having an antiviral action” (Bayer Aktiengesellschaft, priority 1993, dated 1996).
Where two headings read alike, the source gives them in different places. Blank lines part the entries; values can stand above or below the compound they belong to. Numbered stars: 1 amine (or outer) side, 2 acyl side, 3 side chain; on linkers, the order of the positions; unused ones are H or OH. Square brackets hold non-standard residues; d marks the D form. Peptide text beside a SMILES is read from it. * marks the point of attachment. Tos = Cc1ccc(S(=O)(=O)*)cc1; CO = O=C([*:1])[*:2]

Assays:
HCMV (Davis strain) = assay: Anti-HCMV screening test: spread of cytopathogenic effect in HELF cell cultures; format: cell-based, human cytomegalovirus; conditions: concentration causing 50% inhibition of the CPE, HELF cells, 6 days
Procedure: (§1) The anti-HCMV action was determined in a screening test system in 96-well microtitre plates with the aid of human embryonal lung fibroblasts (HELF) cell cultures. The influence of the substances on the spread of the cytopathogenic effect was determined in comparison with the reference substance ganciclovir ([…]®-sodium), a clinically approved anti-HCMV chemotherapeutic. The substances are dissolved in DMSO (dimethyl sulphoxide; 50 mM) and investigated on microtitre plates (96-well) in final concentrations of 1000-0.00048 μM (micromolar) in duplicate determinations (4 substances/plate). Toxic and cytostatic actions of the substances are also recorded here. After the appropriate dilutions of the substances (1:2) on the microtitre plate, a suspension of 50-100 HCMV-infected HELF cells and 3×10^4 non-infected HELF cells in Eagle's MEM (minimal essential medium) with 10% foetal calf serum is introduced into each cup and the plates are incubated at 37° C. in a CO2 incubating cabinet for 6 days. After this period, the cell lawn in the substance-free virus controls, starting from 50-100 infectious centres, is completely destroyed by the cytopathogenic effect (CPE) of the HCMV (100% CPE). After staining with neutral red and fixing with formalin/methanol, the plates are evaluated with the aid of a projection microscope (Plaque Viewer). […]

[1] = tested on: human embryonal lung fibroblasts (HELF); assay: Anticellular (toxic and cytostatic) action in the anti-HCMV screening test; format: cell-based
Procedure: as §1

HIV protease (HIV-1) = biological target: T1, HIV protease (HIV-1) (Human immunodeficiency virus type 1 group M subtype B, UniProt P04585); assay: HIV-specific protease enzyme test (synthetic peptide cleavage, RP-HPLC); format: biochemical; conditions: 50% inhibition of protease activity; purified HIV protease, synthetic Gag cleavage-site peptide
T1 construct: purified HIV protease was incubated with a synthetic peptide
Procedure: This is documented by an HIV-specific protease enzyme test.
The results of the examples described below were determined by the HIV test system described in the following literature references [compare Hansen, J., Billich, S., Schulze, T., Sukrow, S. and Molling, K. (1988), EMBO Journal, volume 7, No. 6, pages 1785-1791]: purified HIV protease was incubated with a synthetic peptide which imitates a cutting site in the Gag precursor protein and represents an in vivo cleavage site of HIV protease. The cleavage products formed from the synthetic peptide were analysed by reverse phase high performance liquid chromatography (RP-HPLC). The IC50 values stated relate to the substance concentration which causes 50% inhibition of protease activity under the abovementioned test conditions.

IC50 (HCMV (Davis strain)): 1.95 µM
SMILES: COC(=O)[C@H](Cc1ccccc1)NC(=O)N[C@@H](CCCNC(=N)NS(=O)(=O)c1ccc(C)cc1)C(=O)N[C@H](C(=O)N[C@@H](C=O)Cc1ccccc1)C(C)C [Example 4] ({OMe-Phe-CO}-Arg(Tos)-Val-[dF]-aldehyde)
CIC50 (μM) HELF [1]: 62.5 µM

SMILES: CC(C)[C@H](NC(=O)[C@H](CCCNC(=N)N)NC(=O)N[C@@H](Cc1ccccc1)C(=O)O)C(=O)N[C@@H](C=O)Cc1ccccc1 [IX, (2R)-2-{Nα -[((1S)-1-Carboxy-2-phenyl-ethyl)aminocarbonyl]-S-arginyl-S-valinyl}amino-3-phenyl-propan-1-al] ({Phe-CO}-Arg-Val-[dF]-aldehyde)
IC50 (HIV protease (HIV-1)): 160 µM

IC50 (HCMV (Davis strain); Human betaherpesvirus 5, 144 h): 2 to 4 µM
SMILES: Nc1nc(O)c2ncn(COC(CO)CO)c2n1 [Namevene ®, ganciclovir]
CIC50 (μM) HELF ([1]; maximum concentration which displays no evident anticellular action, HELF cells, 6 days): 125 µM

SMILES: CC(C)[C@H](NC(=O)[C@H](CCCNC(=N)N)NC(=O)N[C@@H](Cc1ccccc1)C(=O)O)C(=O)N[C@H](C=O)Cc1ccccc1 [VIII, (2S)-2-{Nα -[((1S)-1-Carboxy-2-phenyl-ethyl)aminocarbonyl]-S-arginyl-S-valinyl}amino-3-phenyl-propan-1-al] ({Phe-CO}-Arg-Val-Phe-aldehyde)
IC50 (HIV protease (HIV-1)): 19 µM
